The source of these data is patent US10570129B2 (Zoetis Services LLC, priority 2015, dated 2020).

The subject of one assay is Haemonchus contortus L3. Kind of assay: microbe, parasite or virus in culture. Type of assay: cell-based. As to conditions: for minimal effective concentration: Haemonchus contortus, 96 h, read-out: HcL3 Minimal Effective Concentration (MEC).
A further assay relates to D. immitis microfilariae. Kind of assay: Dirofilaria immitis, microfilariae (DiMF) in vitro motility assay. The format is cell-based. As to conditions: for minimal effective concentration: Dirofilaria immitis, 72 h, read-out: DiMF minimally effective dose (MEC).

Structures are written as SMILES.

`N#Cc1ccc(/C=C/CN2CCc3c(c4ccc(OC(F)(F)F)cc4n3C(=O)NCc3ccnc(Cl)c3)C2)cc1F` [Example 345, (E)-N-((2-chloropyridin-4-yl)methyl)-2-(3-(4-cyano-3-fluorophenyl)allyl)-7-(trifluoromethoxy)-1,2,3,4-tetrahydro-5H-pyrido[4,3-b]indole-5-carboxamide]: the minimal effective concentration in the assay on Haemonchus contortus L3 was determined as 0.5 µM; with D. immitis microfilariae, 18.2 µM.
`N#Cc1ccc2c3c(n(C(=O)NCc4ccnc(F)c4)c2c1)CCN(C/C=C/c1ccc(Cl)cc1F)C3` [Example 52, (E)-2-(3-(4-chloro-2-fluorophenyl)allyl)-7-cyano-N-((2-fluoropyridin-4-yl)methyl)-1,2,3,4-tetrahydro-5H-pyrido[4,3-b]indole-5-carboxamide]: the minimal effective concentration with Haemonchus contortus L3 stood at 5.7 µM; with D. immitis microfilariae, 10 µM.
With `O=C(NCc1ccnc(Cl)c1)N1c2ccc(Cl)cc2C2CN(C/C=C/c3ccc(Cl)c(Cl)c3)CCC21` (stereo not drawn) [Example 517, (E)-8-chloro-N-((2-chloropyridin-4-yl)methyl)-2-(3-(3,4-dichlorophenyl)allyl)-1,2,3,4,4a,9b-hexahydro-5H-pyrido[4,3-b]indole-5-carboxamide], the “HcL3 Minimal Effective Concentration (MEC)” value with Haemonchus contortus L3 is 0.5 µM. The “DiMF minimally effective dose (MEC)” value in the assay on D. immitis microfilariae came out at 10.0 µM.
Regarding `O=C(NCc1ccnc(F)c1)n1c2c(c3ccc(OC(F)(F)F)cc31)CN(C/C=C/c1cc(F)cc(F)c1)CC2` [Example 378, (E)-2-(3-(3,5-difluorophenyl)allyl)-N-((2-fluoropyridin-4-yl)methyl)-7-(trifluoromethoxy)-1,2,3,4-tetrahydro-5H-pyrido[4,3-b]indole-5-carboxamide], the values for the minimal effective concentration in the assay with Haemonchus contortus L3 and in the assay with D. immitis microfilariae were 1.8 µM and 10 µM, respectively.
`COc1ccc(/C=C/CN2CCc3c(c4c(OC(F)(F)F)cccc4n3C(=O)NCc3ccnc(Cl)c3)C2)cc1` [Example 359, (E)-N-((2-chloropyridin-4-yl)methyl)-2-(3-(4-methoxyphenyl)allyl)-9-(trifluoromethoxy)-1,2,3,4-tetrahydro-5H-pyrido[4,3-b]indole-5-carboxamide]: the minimal effective concentration in the assay with Haemonchus contortus L3 and in the assay with D. immitis microfilariae was 3.3 µM throughout.
Turning to `N#Cc1ccc2c(c1)c1c(n2C(=O)NCc2ccnc(Cl)c2)CCN(C/C=C/c2ccc(F)c(C#N)c2)C1` [Example 98, (E)-N-((2-chloropyridin-4-yl)methyl)-8-cyano-2-(3-(3-cyano-4-fluorophenyl)allyl)-1,2,3,4-tetrahydro-5H-pyrido[4,3-b]indole-5-carboxamide], the minimal effective concentration in the assay with Haemonchus contortus L3 is 0.3 µM; in the assay on D. immitis microfilariae, over 100 µM.
Consider `O=C(NCc1ccnc(Cl)c1)n1c2c(c3cc(Cl)c(Cl)cc31)CN(C/C=C/c1ccc(Cl)cc1)CC2` [Example 280, (E)-7,8-dichloro-2-(3-(4-chlorophenyl)allyl)-N-((2-chloropyridin-4-yl)methyl)-1,2,3,4-tetrahydro-5H-pyrido[4,3-b]indole-5-carboxamide], for which the minimal effective concentration in the assay with Haemonchus contortus L3 was 0.3 µM; in the assay with D. immitis microfilariae it was over 100 µM.
For the compound `O=C(NCc1ccnc(Cl)c1)n1c2c(c3c(Cl)c(F)ccc31)CN(C/C=C/c1ccc(Cl)cc1)CC2` [Example 305, (E)-9-chloro-2-(3-(4-chlorophenyl)allyl)-N-((2-chloropyridin-4-yl)methyl)-8-fluoro-1,2,3,4-tetrahydro-5H-pyrido[4,3-b]indole-5-carboxamide], the minimal effective concentration in the assay with Haemonchus contortus L3 came to 0.9 µM; in the assay on D. immitis microfilariae it was 16.5 µM.
As for `O=C(NCc1ccnc(Cl)c1)n1c2c(c3cc(OC(F)(F)F)ccc31)CN(C/C=C/c1ccc(Cl)c(F)c1)CC2` [Example 384, (E)-2-(3-(4-chloro-3-fluorophenyl)allyl)-N-((2-chloropyridin-4-yl)methyl)-8-(trifluoromethoxy)-1,2,3,4-tetrahydro-5H-pyrido[4,3-b]indole-5-carboxamide], the results for the minimal effective concentration in the assay on Haemonchus contortus L3 and with D. immitis microfilariae were 1 µM and 18.2 µM, respectively.
